In patent US11401508B2, “Methods for isolating human cardiac ventricular progenitor cells” (Procella Therapeutics AB, priority 2016, dated 2022):

Legend:
Porcn = biological target: T1, Porcn (Homo sapiens, UniProt Q9H237); conditions: read-out: IC50 (Porcn inhibitor); cited from earlier work
T1 sequence (Q9H237 1-461): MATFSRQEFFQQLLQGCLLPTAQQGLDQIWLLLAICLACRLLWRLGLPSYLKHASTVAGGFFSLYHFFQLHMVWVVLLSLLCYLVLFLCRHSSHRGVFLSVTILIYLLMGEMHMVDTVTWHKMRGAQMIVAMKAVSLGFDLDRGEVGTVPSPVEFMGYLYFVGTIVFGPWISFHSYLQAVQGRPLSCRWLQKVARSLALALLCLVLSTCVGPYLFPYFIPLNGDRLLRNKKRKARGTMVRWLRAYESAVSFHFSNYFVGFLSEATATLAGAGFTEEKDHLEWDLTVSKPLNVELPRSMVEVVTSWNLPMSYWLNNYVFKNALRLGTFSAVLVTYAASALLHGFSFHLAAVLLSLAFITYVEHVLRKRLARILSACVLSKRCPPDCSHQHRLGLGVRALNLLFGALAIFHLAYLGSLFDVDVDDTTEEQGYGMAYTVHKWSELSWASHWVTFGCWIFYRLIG

hPSCs = experiment: Cardiac differentiation of hPSCs, lineage markers by flow cytometry and immunostaining; format: cell-based, human
Experimental: Cells were then cultured in mTeSR1, changed daily.
Data were collected on a FACSCaliber flow cytometer (Beckton Dickinson) and analyzed using FlowJo.

[1] = test system: mature human muscle organ; experiment: Force generation of muscle strips from HVP-derived human muscle organ on electric stimulation; conditions: 5-month graft, p<0.05 compared to control
Text: Animals were sacrificed and the engrafted kidneys were removed for further analysis. The 5-month human graft was a hemisphere structure with the radius of 0.4 cm (diameter of 0.8 cm). […] In addition, muscle trips taken from our mature human muscle organ generated forces (0.36±0.04 mN) in response to electric stimulation and increased their force generation after treatment with a β-adrenergic agonist isoprenaline (0.51±0.02 mN, p<0.05 compared to control). Taken together, these studies indicate that the HVPs are capable of generating a fully functional, mature human ventricular muscle organ in vivo via a cell autonomous pathway, i.e., without the addition of other cells, genes, matrix proteins, or biomaterials.

GSK-3 α = GSK-3 α (Homo sapiens, UniProt P49840); conditions: cited from earlier work
GSK-3 α, sequence (P49840 whole entry, species assumed): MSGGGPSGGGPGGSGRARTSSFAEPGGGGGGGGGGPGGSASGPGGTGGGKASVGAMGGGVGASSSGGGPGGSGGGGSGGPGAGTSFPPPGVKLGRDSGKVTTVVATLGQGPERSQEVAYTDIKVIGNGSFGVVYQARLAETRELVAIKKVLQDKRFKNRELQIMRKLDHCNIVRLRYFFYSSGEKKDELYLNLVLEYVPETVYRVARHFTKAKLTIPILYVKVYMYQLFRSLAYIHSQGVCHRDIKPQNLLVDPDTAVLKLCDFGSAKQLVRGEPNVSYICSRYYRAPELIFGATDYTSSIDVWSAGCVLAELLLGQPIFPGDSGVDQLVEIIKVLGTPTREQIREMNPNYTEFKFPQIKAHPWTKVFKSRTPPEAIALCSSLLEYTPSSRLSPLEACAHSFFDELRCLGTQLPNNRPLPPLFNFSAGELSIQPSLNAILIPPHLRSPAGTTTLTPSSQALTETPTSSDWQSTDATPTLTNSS

GSK-3, β = GSK-3, β (Homo sapiens, UniProt P49841); conditions: read-out: IC50 GSK-3 β; cited from earlier work
GSK-3, β, sequence (P49841 whole entry, species assumed): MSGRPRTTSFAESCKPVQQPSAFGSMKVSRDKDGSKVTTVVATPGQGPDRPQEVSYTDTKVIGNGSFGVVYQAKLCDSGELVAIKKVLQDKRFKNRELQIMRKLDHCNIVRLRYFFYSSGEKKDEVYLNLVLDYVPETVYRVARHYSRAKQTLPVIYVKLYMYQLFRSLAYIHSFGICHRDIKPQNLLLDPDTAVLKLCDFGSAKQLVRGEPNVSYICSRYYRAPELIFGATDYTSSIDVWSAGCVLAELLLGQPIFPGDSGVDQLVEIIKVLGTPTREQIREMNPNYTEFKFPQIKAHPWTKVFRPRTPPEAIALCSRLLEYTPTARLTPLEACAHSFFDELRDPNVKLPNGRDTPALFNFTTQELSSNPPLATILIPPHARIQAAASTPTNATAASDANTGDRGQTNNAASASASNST

Cc1ccc2nc(NC(=O)CSc3nc4c(c(=O)n3-c3ccccc3)SCC4)sc2c1 [IWP2]
IC50 (Porcn): 27 nM

Cc1cc(-c2ccc(CC(=O)Nc3ccc(-c4cccnc4)cc3)cc2)ccn1 [Wnt-059]
ventricular progenitor differentiation from mesoderm cells (hPSCs; 48-hour treatment): enhanced ventricular progenitor differentiation | IC50 (Porcn): 0.074 nM

CC(C)NCC(O)c1ccc(O)c(O)c1 (centres unmarked) [isoprenaline]
force generated by muscle strips after treatment with β-adrenergic agonist [1]: 0.51±0.02 mN

CHIR98014
hPSCs expressing the mesoderm marker Brachyury (hPSCs; after 24 hour treatment): more than 99% | differentiated cells expressing Mesp1 (cardiac mesoderm) (hPSCs; three days after treatment): more than 95% | IC50 (GSK-3 α): 0.65 nM | IC50 (GSK-3, β): 0.58 nM
